Several values for one entry are separate records, joined by “and”; a condition that tells them apart may be missing. Identical values can stand only once. Inconclusive results and toxic doses are left out. Rule as the data show it: active = T/C of 150% or more; inactive = T/C below 125%.
Test system: L1210 leukemia ip in BDF1 mice, survival T/C
Test: NCI In Vivo Anticancer Drug Screen. Data for tumor model L1210 Leukemia (intraperitoneal) in B6D2F1 (BDF1) mice
Conditions: endpoint: mean survival time, higher = longer survival
How it was run: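 Antitumor effect is assessed in tumor-bearing animals. Survival in the compound arm is compared with a vehicle-dosed control arm and expressed as their quotient.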

[1] = dose: 100.0 mg/kg/injection, schedule: Q04DX003 (ip), vehicle: Klucel (hydroxypropylcellulose) (HPC)
[2] = dose: 200.0 mg/kg/injection, schedule: Q04DX003 (ip), vehicle: Klucel (hydroxypropylcellulose) (HPC)
[3] = dose: 400.0 mg/kg/injection, schedule: Q04DX003 (ip), vehicle: Klucel (hydroxypropylcellulose) (HPC)
[4] = dose: 100.0 mg/kg/injection, schedule: Q04DX003 (ip), vehicle: saline with Tween-80
[5] = dose: 200.0 mg/kg/injection, schedule: Q04DX003 (ip), vehicle: saline with Tween-80
[6] = dose: 400.0 mg/kg/injection, schedule: Q04DX003 (ip), vehicle: saline with Tween-80
[7] = dose: 100.0 mg/kg/injection, schedule: Q01DX009 (ip), vehicle: saline with Tween-80
[8] = dose: 100.0 mg/kg/injection, schedule: Q01DX001 (ip), vehicle: saline
[9] = dose: 200.0 mg/kg/injection, schedule: Q01DX001 (ip), vehicle: saline
[10] = dose: 400.0 mg/kg/injection, schedule: Q01DX001 (ip), vehicle: saline
[11] = dose: 100.0 mg/kg/injection, schedule: Q04DX003 (ip), vehicle: saline
[12] = dose: 100.0 mg/kg/injection, schedule: Q04DX002 (ip), vehicle: saline with Tween-80
[13] = dose: 200.0 mg/kg/injection, schedule: Q04DX002 (ip), vehicle: saline with Tween-80
[14] = dose: 400.0 mg/kg/injection, schedule: Q04DX002 (ip), vehicle: saline with Tween-80

Measured: T/C

COc1ccc(C(=O)C(C)C(O)(C(F)(F)F)C(F)(F)F)cc1 (stereo not drawn)
inactive: dose: 75.0 mg/kg/injection, schedule: Q01DX009 (ip), vehicle: Klucel (hydroxypropylcellulose) (HPC) 97 % of control | [1] 111 % of control | dose: 150.0 mg/kg/injection, schedule: Q01DX009 (ip), vehicle: Klucel (hydroxypropylcellulose) (HPC) 101 % of control | [2] 100 % of control | dose: 300.0 mg/kg/injection, schedule: Q01DX009 (ip), vehicle: Klucel (hydroxypropylcellulose) (HPC) 92 % of control | [3] 100 % of control

Nc1cc(Nc2cccc(Br)c2)nc(N)n1
inactive: dose: 100.0 mg/kg/injection, schedule: Q04DX002 (ip), vehicle: Klucel (hydroxypropylcellulose) (HPC) 97 % of control | dose: 200.0 mg/kg/injection, schedule: Q04DX002 (ip), vehicle: Klucel (hydroxypropylcellulose) (HPC) 108 % of control

CCN(CC)C(=O)c1ccc(C(Cl)(Cl)Cl)cc1
inactive: dose: 75.0 mg/kg/injection, schedule: Q01DX009 (ip), vehicle: saline sonified 91 % of control | [1] 87 % of control | dose: 150.0 mg/kg/injection, schedule: Q01DX009 (ip), vehicle: saline sonified 91 % of control | [2] 89 % of control | dose: 300.0 mg/kg/injection, schedule: Q01DX009 (ip), vehicle: saline sonified 87 % of control | [3] 91 % of control

COc1ccc(C(=O)c2ccccc2NC(C)=O)cc1
inactive: [4] 89 % of control | [5] 98 % of control | [6] 94 % of control

S=c1nn[nH]n1C1CCCCC1
inactive: dose: 25.0 mg/kg/injection, schedule: Q01DX009 (ip), vehicle: saline with Tween-80 92 % of control | dose: 50.0 mg/kg/injection, schedule: Q01DX009 (ip), vehicle: saline with Tween-80 88 % of control | [7] 90 % of control | [4] 103 % of control | [6] 87 % of control

C(=C/P(c1ccccc1)c1ccccc1)/P(c1ccccc1)c1ccccc1
inactive: dose: 75.0 mg/kg/injection, schedule: Q01DX001 (ip), vehicle: saline 108 % of control | dose: 150.0 mg/kg/injection, schedule: Q01DX001 (ip), vehicle: saline 98 % of control | dose: 300.0 mg/kg/injection, schedule: Q01DX001 (ip), vehicle: saline 93 % of control

COc1ccc(Cl)cc1CCCO
inactive: dose: 50.0 mg/kg/injection, schedule: Q01DX001 (ip), vehicle: saline 100 % of control | [8] 100 % of control | [9] 92 % of control | [10] 119 % of control

CN(C)C(=O)C1C2C=CC(CC2)C1C(=O)N(C)C (stereo not drawn)
inactive: [11] 96 % of control | dose: 200.0 mg/kg/injection, schedule: Q04DX003 (ip), vehicle: saline 96 % of control | dose: 400.0 mg/kg/injection, schedule: Q04DX003 (ip), vehicle: saline 96 % of control

C[n+]1c(-c2cccc3ccccc23)c2cc([N+](=O)[O-])ccc2c2ccccc21
inactive: dose: 6.25 mg/kg/injection, schedule: Q01DX009 (ip), vehicle: water 104 % of control | dose: 12.5 mg/kg/injection, schedule: Q01DX009 (ip), vehicle: water 100 % of control | dose: 12.5 mg/kg/injection, schedule: Q04DX003 (ip), vehicle: water 98 % of control | dose: 25.0 mg/kg/injection, schedule: Q04DX003 (ip), vehicle: water 105 % of control | dose: 50.0 mg/kg/injection, schedule: Q04DX003 (ip), vehicle: water 93 % of control

CCCCCCCC/C=C\CCCCCCCCNC(C)=O
inactive: [4] 101 % of control | [5] 103 % of control | [6] 98 % of control

NOCc1ccsn1
inactive: dose: 100.0 mg/kg/injection, schedule: Q01DX001 (ip), vehicle: other 105 % of control | dose: 100.0 mg/kg/injection, schedule: Q01DX009 (ip), vehicle: sodium bicarbonate 96 % of control | dose: 100.0 mg/kg/injection, schedule: Q04DX003 (ip), vehicle: other 102 % of control | dose: 200.0 mg/kg/injection, schedule: Q01DX001 (ip), vehicle: other 111 % of control | dose: 200.0 mg/kg/injection, schedule: Q01DX009 (ip), vehicle: sodium bicarbonate 98 % of control | dose: 200.0 mg/kg/injection, schedule: Q04DX003 (ip), vehicle: other 95 % of control | dose: 400.0 mg/kg/injection, schedule: Q01DX001 (ip), vehicle: other 94 % of control

COc1ccc(OC)c(C(Nc2ccc3cn[nH]c3c2)P(=O)(c2ccccc2)c2ccccc2)c1 (stereo not drawn)
inactive: dose: 100.0 mg/kg/injection, schedule: Q01DX001 (ip), vehicle: saline with Tween-80 93 % of control | [7] 95 % of control | [12] 103 % of control and 104 % of control | [4] 96 % of control | dose: 200.0 mg/kg/injection, schedule: Q01DX001 (ip), vehicle: saline with Tween-80 103 % of control | dose: 200.0 mg/kg/injection, schedule: Q01DX009 (ip), vehicle: saline with Tween-80 95 % of control | [13] 95 % of control and 90 % of control | [5] 95 % of control | dose: 400.0 mg/kg/injection, schedule: Q01DX001 (ip), vehicle: saline with Tween-80 92 % of control | dose: 400.0 mg/kg/injection, schedule: Q01DX009 (ip), vehicle: saline with Tween-80 97 % of control | [14] 93 % of control | [6] 92 % of control

CNC(=S)NNC(=O)c1ccncc1
inactive: [12] 100 % of control | [13] 100 % of control | [14] 100 % of control

COc1ccc(C(=O)C(C)(CN(C)C)c2ccccc2)cc1 (stereo not drawn)
inactive: dose: 25.0 mg/kg/injection, schedule: Q01DX009 (ip), vehicle: saline 93 % of control | dose: 25.0 mg/kg/injection, schedule: Q04DX003 (ip), vehicle: saline 92 % of control | dose: 50.0 mg/kg/injection, schedule: Q01DX009 (ip), vehicle: saline 100 % of control | dose: 50.0 mg/kg/injection, schedule: Q04DX003 (ip), vehicle: saline 94 % of control | dose: 100.0 mg/kg/injection, schedule: Q01DX009 (ip), vehicle: saline 102 % of control | [11] 93 % of control and 101 % of control

COC1(OC)C2CCC1C1OC12 (stereo not drawn)
inactive: dose: 100.0 mg/kg/injection, schedule: Q04DX002 (ip), vehicle: saline 107 % of control | dose: 200.0 mg/kg/injection, schedule: Q04DX002 (ip), vehicle: saline 97 % of control | dose: 400.0 mg/kg/injection, schedule: Q04DX002 (ip), vehicle: saline 97 % of control

O=S1OCC=CCO1
inactive: dose: 50.0 mg/kg/injection, schedule: Q01DX001 (ip), vehicle: carboxymethylcellulose (CMC) 108 % of control | dose: 100.0 mg/kg/injection, schedule: Q01DX001 (ip), vehicle: carboxymethylcellulose (CMC) 114 % of control | dose: 200.0 mg/kg/injection, schedule: Q01DX001 (ip), vehicle: carboxymethylcellulose (CMC) 105 % of control

Nc1nc2c(c(=O)[nH]1)N(Cc1ccccc1)C(CNc1ccc(C(=O)NC(CCC(=O)O)C(=O)O)cc1)CN2 (stereo not drawn)
inactive: dose: 100.0 mg/kg/injection, schedule: Q01DX001 (ip), vehicle: alkali diluted with saline 91 % of control | dose: 200.0 mg/kg/injection, schedule: Q01DX001 (ip), vehicle: alkali diluted with saline 94 % of control | dose: 400.0 mg/kg/injection, schedule: Q01DX001 (ip), vehicle: alkali diluted with saline 100 % of control

CC1C(=O)C=C2CCCC(C)(C)C2(C)C1(O)CCc1ccoc1 (stereo not drawn)
inactive: [8] 103 % of control | [9] 97 % of control | [10] 107 % of control

CC1(C)NC(C(=O)O)CS1 (stereo not drawn)
inactive: [8] 101 % of control | [9] 90 % of control | [10] 95 % of control

From PubChem BioAssay AID248 (DTP/NCI, 2004)
